The NIST ThermoML archive (doi:10.1016/j.jct.2008.10.010)

Tests used:
[1] = molar heat capacity at constant pressure; details: 101.33 kPa, Liquid, Small sample (50 mg) DSC
[2] = 298.15 K; 101.33 kPa; Liquid; Pycnometric method
[3] = refractive index (Na D-line) (dimensionless); details: 298.15 K; 101.33 kPa; Liquid; Standard Abbe refractometry

CCC(C)(C)O [2-methylbutan-2-ol]
[1]
Details | molar heat capacity at constant pressure [J/K/mol]
284.14 K | 233.4
285.15 K | 234.44
286.16 K | 235.36
287.14 K | 236.15
288.15 K | 237.23
289.14 K | 238.19
290.14 K | 239.11
291.15 K | 240.18
292.14 K | 241.19
293.14 K | 242.22
294.15 K | 243.25
295.14 K | 244.25
296.14 K | 245.3
297.15 K | 246.36
298.14 K | 247.43
298.15 K | 247.44
298.16 K | 247.45
299.14 K | 248.43
300.15 K | 249.45
301.14 K | 250.56
302.14 K | 251.71
303.15 K | 252.8
304.14 K | 253.86
305.14 K | 255.01
306.15 K | 256.09
307.16 K | 257.16
308.14 K | 258.22
309.15 K | 259.29
310.16 K | 260.36
311.14 K | 261.32
312.15 K | 262.41
313.16 K | 263.51
314.14 K | 264.5
315.15 K | 265.53
316.16 K | 266.49
317.14 K | 267.5
318.15 K | 268.57
319.15 K | 269.56
320.14 K | 270.43
321.15 K | 271.49
322.15 K | 272.37
323.14 K | 273.32
324.15 K | 274.25
325.15 K | 275.15
326.14 K | 276.09
327.15 K | 276.89
328.15 K | 277.86
329.14 K | 278.7
330.14 K | 279.59
331.15 K | 280.35
332.14 K | 281.18
333.14 K | 282.05
334.15 K | 283
335.14 K | 283.68
336.14 K | 284.35
337.15 K | 285.19
338.14 K | 285.94
339.14 K | 286.59
340.15 K | 287.37
341.13 K | 287.88
342.14 K | 288.59
343.15 K | 289.15
344.16 K | 289.83
345.14 K | 290.42
346.15 K | 290.94
347.16 K | 291.42
348.14 K | 292.03
349.15 K | 292.61
350.16 K | 293.03
351.14 K | 293.51
352.15 K | 293.87
353.15 K | 294.39
354.15 K | 294.87
355.13 K | 295.24
356.14 K | 295.66
357.15 K | 296.1
358.15 K | 296.36
359.14 K | 296.72
360.15 K | 296.98
361.15 K | 297.18
362.15 K | 297.48
363.14 K | 297.69
364.15 K | 297.95
365.15 K | 298.16
366.14 K | 298.39
367.15 K | 298.46
368.15 K | 298.75
368.76 K | 298.79

Details | mass density [kg/m3] | refractive index
[2] | 804.32 | –
[3] | – | 1.4025
